From US20100063282A1, “Glucocorticoid Mimetics, Methods of Making Them, Pharmaceutical Compositions, and Uses Thereof” (BOEHRINGER INGELHEIM INTERNATIONAL GMBH, priority 2007, published 2010) come the findings set out here.

Assay [1] has as its target T1, human glucocorticoid receptor (GR) complex (Homo sapiens, UniProt P04150).
T1 construct: made in house; host or cells: insect cells (baculovirus expression); used as crude lysate
T1 sequence (P04150 1-777): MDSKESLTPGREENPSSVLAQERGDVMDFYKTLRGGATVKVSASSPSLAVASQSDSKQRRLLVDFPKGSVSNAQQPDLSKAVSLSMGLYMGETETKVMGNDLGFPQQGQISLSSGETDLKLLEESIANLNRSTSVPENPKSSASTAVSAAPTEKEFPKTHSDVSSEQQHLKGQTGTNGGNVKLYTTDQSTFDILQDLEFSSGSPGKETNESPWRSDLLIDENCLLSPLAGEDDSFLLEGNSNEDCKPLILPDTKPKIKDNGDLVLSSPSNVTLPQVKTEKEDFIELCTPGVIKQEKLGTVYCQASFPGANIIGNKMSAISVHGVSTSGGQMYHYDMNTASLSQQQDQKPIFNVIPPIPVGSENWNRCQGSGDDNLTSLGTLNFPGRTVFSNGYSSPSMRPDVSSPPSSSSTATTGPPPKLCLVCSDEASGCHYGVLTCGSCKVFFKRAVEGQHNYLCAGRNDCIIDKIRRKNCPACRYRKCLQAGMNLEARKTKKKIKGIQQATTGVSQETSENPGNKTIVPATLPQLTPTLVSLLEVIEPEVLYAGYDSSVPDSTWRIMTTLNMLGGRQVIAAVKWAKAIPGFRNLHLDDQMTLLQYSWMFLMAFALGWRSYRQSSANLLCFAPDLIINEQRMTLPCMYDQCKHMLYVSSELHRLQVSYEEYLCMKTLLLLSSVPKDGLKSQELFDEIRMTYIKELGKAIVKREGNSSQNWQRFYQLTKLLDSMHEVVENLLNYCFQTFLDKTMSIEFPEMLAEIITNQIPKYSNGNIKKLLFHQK
Description: Glucocorticoid receptor competitive binding assay (fluorescence polarization). The settings on record: competition with TAMRA-labeled dexamethasone, GR-containing baculovirus lysate, 1 hour at room temperature. The method, then:
Compounds of the invention were evaluated for binding to the steroid receptor by a fluorescence polarization competitive binding assay. Detailed descriptions for preparation of recombinant glucocorticoid receptor (GR) complex used in the assay is described in U.S. Patent Application Publication No. US 2003/0017503, filed May 20, 2002, and incorporated herein by reference in its entirety. Preparation of the tetramethylrhodamine (TAMRA)-labeled dexamethasone probe was accomplished using a standard literature procedure (M. Pons et al., J. Steroid Biochem., 1985, 22, pp. 267-273).
The affinity of the probe for the steroid receptor was then determined in a titration experiment. The fluorescence polarization value of the probe in assay buffer was measured on an SLM-8100 fluorometer using the excitation and emission maximum values described above. Aliquots of expression vector lysate were added and fluorescence polarization was measured after each addition until no further change in polarization value was observed. Non-linear least squares regression analysis was used to calculate the dissociation constant of the probe from the polarization values obtained for lysate binding to the probe.
This assay uses fluorescence polarization (FP) to quantitate the ability of test compounds to compete with tetramethylrhodamine (TAMRA)-labeled dexamethasone for binding to a human glucocorticoid receptor (GR) complex prepared from an insect expression system. The assay buffer was: 10 mM TES, 50 mM KCl, 20 mM Na2MoO4.2H2O, 1.5 mM EDTA, 0.04% w/v CHAPS, 10% v/v glycerol, 1 mM dithiothreitol, pH 7.4. Test compounds were dissolved to 1 mM in neat DMSO and then further diluted to 10× assay concentration in assay buffer supplemented with 10% v/v DMSO. Test compounds were serially diluted at 10× assay concentrations in 10% DMSO-containing buffer in 96-well polypropylene plates. Binding reaction mixtures were prepared in 96-well black Dynex microtiter plates by sequential addition of the following assay components to each well: 15 μL of 10× test compound solution, 85 μL of GR-containing baculovirus lysate diluted 1:170 in assay buffer, and 50 μL of 15 nM TAMRA-labeled dexamethasone. Positive controls were reaction mixtures containing no test compound; negative controls (blanks) were reaction mixtures containing 0.7 μM to 2 μM dexamethasone. The binding reactions were incubated for 1 hour at room temperature and then read for fluorescence polarization in the LJL Analyst set to 550 nm excitation and 580 nm emission, with the Rhodamine 561 dichroic mirror installed. IC50 values were determined by iterative non-linear curve fitting of the FP signal data to a 4-parameter logistic equation.
Background: Fluorescence polarisation rises when a labelled molecule tumbles more slowly, as on binding a larger partner.

In assay [2] the test system is glucocorticoid receptor. Description: Glucocorticoid receptor function, one or more of the above assays. In kind it is cell-based. The note with it: in one or more of the above assays, assay not specified. The protocol:
Dexamethasone, a synthetic ligand to the glucocorticoid receptor (GR), induces expression of aromatase in human foreskin fibroblast cells. The activity of aromatase is measured by the conversion of testosterone to estradiol in culture media.
Human foreskin fibroblast cells (ATCC Cat. No. CRL-2429, designation CCD112SK) are plated on 96 well plates at 50,000 cells per well 5 days before use, in Iscove's Modified Dulbecco's Media (GibcoBRL Life Technologies Cat No. 12440-053) supplemented with 10% charcoal filtered FBS (Clonetech Cat No. SH30068) and Gentamycin (GibcoBRL Life Technologies Cat. No. 15710-064). On the day of the experiment, the media in the wells is replaced with fresh media. Cells are treated with test compounds to final concentrations of 10^−5 M to 10^−8 M, and testosterone to a final concentration of 300 ng/mL. Each well has a total volume of 100 μL. Samples are made in duplicates. […] Estradiol in the supernatant is measured using ELISA kits for estradiol (made by ALPCO, obtained from American Laboratory Products Cat. No. 020-DR-2693) according to the manufacture's instruction. […] The extent of aromatase induction by test compounds is expressed as a relative percentage to dexamethasone. […]
Human foreskin fibroblast cells (ATCC Cat. No. CRL-2429) are plated on 96 well plates at 5,000 cells per well the day before use, in Iscove's Modified Dulbecco's Media (GibcoBRL Life Technologies Cat. No. 12440-053) supplemented with 10% charcoal filtered FBS (Clonetech Cat. No. SH30068) and Gentamycin (GibcoBRL Life Technologies Cat. No. 15710-064). […] IL-6 levels in the supernatants are determined by the ELISA kits for IL-6 (MedSystems Diagnostics GmbH, Vienna, Austria, Cat. No. BMS213TEN) according to manufacture's instructions. […]
H4-II-E-C3 cells were incubated overnight in 96 well plates (20,000 cells/100 μL/well) in MEM medium containing 10% heat inactivated FBS and 1% nonessential amino acids. […] After 18 hours, the cells were lysed in a buffer containing 0.1% Triton X-100 and the TAT activity was measured in a photometric assay using tyrosine and alpha-ketoglutarate as substrates. […]

Where only a bound is given, the exact number is not on record here.

By IC50 is commonly meant the concentration that gives 50% inhibition. Low readings indicate greater potency, high ones weaker potency.

`Cc1cc(C)c(S(=O)(=O)NC(CNc2cccc3ncccc23)C(F)(F)F)c(C)c1` (centres unmarked) [2,4,6-Trimethyl-N-[2,2,2-trifluoro-1-(quinolin-5-ylaminomethyl)ethyl]benzenesulfonamide] yielded an IC50 in assay [1] not above 100 nM.

`Cc1cc(C)c(S(=O)(=O)NC(COc2cccc3cnccc23)C(F)(F)F)c(C)c1` (centres unmarked) [2,4,6-Trimethyl-N-[2,2,2-trifluoro-1-(isoquinolin-5-yloxymethyl)ethyl]benzenesulfonamide] registered a half-maximal inhibitory concentration (IC50) in assay [1] not above 100 nM.

Compound `Cc1cc(C)c(S(=O)(=O)NC(CNc2cccc3ccc(C)nc23)C(F)(F)F)c(C)c1` (centres unmarked) [2,4,6-Trimethyl-N-{2,2,2-trifluoro-1-[(2-methylquinolin-8-ylamino)methyl]ethyl}benzenesulfonamide] displayed a half-inhibitory concentration (IC50) in assay [1] not above 100 nM.

In assay [1], `Cc1cc(C)c(S(=O)(=O)NC(CSc2nc(C)cc(C(F)(F)F)c2C#N)C(F)(F)F)c(C)c1` (centres unmarked) [N-[1-(3-Cyano-6-methyl-4-trifluoromethylpyridin-2-ylsulfanylmethyl)-2,2,2-trifluoroethyl]-2,4,6-trimethylbenzenesulfonamide] had a 50% inhibitory concentration (IC50) not above 100 nM.

Regarding `CC[C@@H](CNc1cccc2[nH]ccc12)NS(=O)(=O)c1c(N)cc(Cl)cc1Cl` [2-Amino-4,6-dichloro-N—{(S)-1-[(1H-indol-4-ylamino)methyl]propyl}benzenesulfonamide], the “activity as an agonist of the glucocorticoid receptor function” value (shortened to “activity as an agonist”) in assay [2] is listed as “shown activity as an agonist”. The compound also returned a 50% inhibitory concentration (IC50) in assay [1] not above 100 nM.

Consider `Cc1cc(C)c(S(=O)(=O)NC(CSc2ccc([N+](=O)[O-])cn2)C(F)(F)F)c(C)c1` (centres unmarked) [2,4,6-Trimethyl-N-[2,2,2-trifluoro-1-(5-nitropyridin-2-ylsulfanylmethyl)ethyl]benzenesulfonamide], for which the IC50 in assay [1] is not above 100 nM.

For the compound `CC[C@@H](CNc1ccc2c(cnn2-c2ccc(F)cc2)c1)NS(=O)(=O)c1c(N)cc(Cl)cc1Cl` [2-Amino-4,6-dichloro-N—((S)-1-{[1-(4-fluorophenyl)-1H-indazol-5-ylamino]methyl}propyl)benzenesulfonamide], in assay [2], the “activity as an agonist” value is “shown activity as an agonist”. In addition, in assay [1], the IC50 was not above 100 nM.

In assay [1], `CC[C@@H](CNc1ccc2c(cnn2-c2ccc(F)cc2)c1)NS(=O)(=O)c1c(C)cc(C)cc1C` [N—((S)-1-{[1-(4-Fluorophenyl)-1H-indazol-5-ylamino]methyl}propyl)-2,4,6-trimethylbenzenesulfonamide] gave an IC50 not above 100 nM.

`Cc1cc(C)c(S(=O)(=O)NC(CSc2ncccc2C(F)(F)F)C(F)(F)F)c(C)c1` (centres unmarked) [2,4,6-Trimethyl-N-[2,2,2-trifluoro-1-(3-trifluoromethylpyridin-2-ylsulfanylmethyl)ethyl]benzenesulfonamide] returned a concentration for half-maximal inhibition (IC50) in assay [1] not above 100 nM.

`Cc1cc(C)c(S(=O)(=O)NC(CSc2ccccn2)C(F)(F)F)c(C)c1` (centres unmarked) [2,4,6-Trimethyl-N-[2,2,2-trifluoro-1-(pyridin-2-ylsulfanylmethyl)ethyl]benzenesulfonamide] displayed a 50% inhibitory concentration (IC50) in assay [1] not above 100 nM.

The compound `Cc1cc(C)c(S(=O)(=O)NC(CNc2cccc3cnccc23)C(F)(F)F)c(C)c1` (centres unmarked) [2,4,6-Trimethyl-N-[2,2,2-trifluoro-1-(isoquinolin-5-ylaminomethyl)ethyl]benzenesulfonamide] registered an IC50 in assay [1] not above 100 nM.

`CC[C@@H](CNc1cccc2cc[nH]c12)NS(=O)(=O)c1c(C)cc(C)cc1C` [N—{(S)-1-[(1H-Indol-7-ylamino)methyl]propyl}-2,4,6-trimethylbenzenesulfonamide]: the IC50 in assay [1] is not above 100 nM.

Take `Cc1cc(C)c(S(=O)(=O)NC(COc2cccc3ncccc23)C(F)(F)F)c(C)c1` (centres unmarked) [2,4,6-Trimethyl-N-[2,2,2-trifluoro-1-(quinolin-5-yloxymethyl)ethyl]benzenesulfonamide]: the IC50 in assay [1] was not above 100 nM.

Take `CC[C@@H](CNc1cccc2[nH]ccc12)NS(=O)(=O)c1c(C)cc(C)cc1C` [N—{(S)-1-[(1H-Indol-4-ylamino)methyl]propyl}-2,4,6-trimethylbenzenesulfonamide]: the “activity as an agonist” value in assay [2] is “shown activity as an agonist”. In addition, the concentration for half-maximal inhibition (IC50) in assay [1] is not above 100 nM.
